Data: patent US8859546B2, “Picolinamide inhibitors of kinases” (AbbVie Inc., priority 2011, dated 2014)

biological target: T1, ALK (Homo sapiens, UniProt Q9UM73); test: ALK kinase assay (HTRF), apparent Ki; format: biochemical; conditions: apparent Ki from IC50 by Cheng-Prusoff; ALK (Millipore), 50 μM ATP; read-out: HTRF_ALK Human-Ki
T1 construct: purchased Millipore
Experimental: The following procedure is used to determine ALK Activity.
ALK kinase assays were conducted with the indicated final concentrations unless otherwise specified. In 384 well black plates (Axygen), 8 μl of compound (2% DMSO) was incubated with 8 μl Lck-peptide substrate (0.5 μM, biotin-Ahx-GAEEEIYAAFFA-COOH) and 8 μl of a mixture of ALK (3 nM, Millipore) and ATP (50 μM) in reaction buffer (50 mM Hepes, pH 7.4; 10 mM MgCl2; 2 mM MnCl2; 0.1 mM sodium orthovanadate; 0.01% BSA and 1 mM DTT (added fresh before assay) for 1 h at room temperature. Reactions were then quenched by the addition of 30 μl quench solution (streptavidin-allophycocyanin and Europium-cryptate PT66 monoclonal antibody in 40 mM Hepes, pH 7.4; 480 mM KF; 66 mM EDTA; 0.01% Tween-20; and 0.1% BSA) at room temperature. Plates were read 1 h after quenching on an Envision Multilaber Reader and IC50 values were calculated using a sigmoidal fit of the concentration/inhibition response curves. These values were converted to apparent Ki values using the Cheng-Prusoff relationship.
Alternatively, 4 nM ALK (Millipore) and 50 μM ATP were pre-incubated for 30 min at room temperate in 384 well plates (Corning 3676) in 2.5× reaction buffer (125 nM SEB from Cisbio Bioassays, 12.5 mM MgCl2, 5 mM MnCl2, and 2.5 mM DTT). Reactions were initiated by the addition of 4 μl ALK-ATP mixture to 2 μl compounds (2% DMSO) and 4 μl TK-substrate biotin (Cisbio Bioassays). After incubation for 1 h at room temperature, reactions were quenched in 10 μl stop buffer (Cisbio detection buffer containing Streptavididn-XL665 and Eu-Cryptate PT66 monoclonal antibody). Plates were read 1 h after quenching on an Envision Multilaber Reader and IC50 values were calculated using a sigmoidal fit of the concentration/inhibition response curves. These values were converted to apparent Ki values using the Cheng-Prusoff relationship. Results are shown in Table 1 A correlates to an Ki=<100 nM, B correlates to an Ki between 100 nM and 1 μM, C correlates to an Ki=>1 μM.

T1 sequence (Q9UM73 19-1620): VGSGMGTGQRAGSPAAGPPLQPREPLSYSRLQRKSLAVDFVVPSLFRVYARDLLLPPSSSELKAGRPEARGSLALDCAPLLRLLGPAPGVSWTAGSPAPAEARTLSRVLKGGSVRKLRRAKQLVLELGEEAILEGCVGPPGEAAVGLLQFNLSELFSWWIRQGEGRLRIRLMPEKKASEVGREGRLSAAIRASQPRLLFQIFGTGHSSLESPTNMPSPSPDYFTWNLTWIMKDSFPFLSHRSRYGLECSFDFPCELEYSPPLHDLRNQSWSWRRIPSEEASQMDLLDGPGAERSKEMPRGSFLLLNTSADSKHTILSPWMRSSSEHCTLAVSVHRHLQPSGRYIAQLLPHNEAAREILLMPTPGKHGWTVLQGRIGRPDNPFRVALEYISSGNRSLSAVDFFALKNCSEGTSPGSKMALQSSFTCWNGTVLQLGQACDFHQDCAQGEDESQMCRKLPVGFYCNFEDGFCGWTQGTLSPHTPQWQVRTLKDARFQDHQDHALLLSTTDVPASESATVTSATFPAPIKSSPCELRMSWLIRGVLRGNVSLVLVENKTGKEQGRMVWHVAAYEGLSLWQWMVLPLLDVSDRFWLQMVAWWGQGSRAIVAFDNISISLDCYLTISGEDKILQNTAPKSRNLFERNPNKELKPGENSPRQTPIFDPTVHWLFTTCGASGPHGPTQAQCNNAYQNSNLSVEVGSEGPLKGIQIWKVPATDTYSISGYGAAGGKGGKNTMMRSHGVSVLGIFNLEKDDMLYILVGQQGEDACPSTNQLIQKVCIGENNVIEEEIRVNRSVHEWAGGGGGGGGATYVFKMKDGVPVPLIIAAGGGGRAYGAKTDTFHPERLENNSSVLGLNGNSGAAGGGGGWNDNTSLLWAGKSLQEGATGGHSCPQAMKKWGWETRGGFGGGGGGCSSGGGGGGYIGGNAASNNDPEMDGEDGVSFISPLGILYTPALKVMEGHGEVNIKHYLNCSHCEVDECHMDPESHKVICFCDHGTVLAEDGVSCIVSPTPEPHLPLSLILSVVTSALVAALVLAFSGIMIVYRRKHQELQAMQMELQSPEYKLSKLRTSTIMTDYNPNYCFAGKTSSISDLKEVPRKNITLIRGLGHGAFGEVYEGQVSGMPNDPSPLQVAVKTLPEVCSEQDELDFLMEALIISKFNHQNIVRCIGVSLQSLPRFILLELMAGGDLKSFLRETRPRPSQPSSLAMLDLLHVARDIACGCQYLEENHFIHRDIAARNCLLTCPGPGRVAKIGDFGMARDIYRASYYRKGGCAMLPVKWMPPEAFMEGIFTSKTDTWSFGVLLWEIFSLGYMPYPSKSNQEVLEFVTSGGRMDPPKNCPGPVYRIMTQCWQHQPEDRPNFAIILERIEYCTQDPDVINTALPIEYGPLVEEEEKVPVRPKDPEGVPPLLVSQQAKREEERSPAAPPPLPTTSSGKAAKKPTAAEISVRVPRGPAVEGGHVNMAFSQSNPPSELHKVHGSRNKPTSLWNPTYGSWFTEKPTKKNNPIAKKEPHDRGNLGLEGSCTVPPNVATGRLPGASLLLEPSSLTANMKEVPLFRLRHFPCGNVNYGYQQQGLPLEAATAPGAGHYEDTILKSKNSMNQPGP

**Q.** With COc1cc(N2CCNCC2)ccc1Nc1cc(Cc2c(Cl)cccc2Cl)cnc1C(N)=O [Example 1, 5-(2,6-dichlorobenzyl)-3-{[2-methoxy-4-(piperazin-1-yl)phenyl]amino}pyridine-2-carboxamide] as the compound, how does the Ki read?
**A.** < 100 nM

**Q.** Which Ki does the source give for COc1cc(N2CCNCC2)ccc1Nc1cc(C(C)c2c(Cl)cccc2Cl)cnc1C(N)=O (stereo not shown) [Example 2, 5-[1-(2,6-dichlorophenyl)ethyl]-3-{[2-methoxy-4-(piperazin-1-yl)phenyl]amino}pyridine-2-carboxamide] here?
**A.** < 100 nM

**Q.** How did the Ki turn out when CN1CCN(c2ccc(Nc3cc(Cc4ccccc4)cnc3C(N)=O)cc2)CC1 [Example 3, 5-benzyl-3-{[4-(4-methylpiperazin-1-yl)phenyl]amino}pyridine-2-carboxamide] was run?
**A.** 100 to 1000 nM

**Q.** CN1CCN(c2cccc(Nc3cc(Cc4ccccc4)cnc3C(N)=O)c2)CC1 [Example 4, 5-benzyl-3-{[3-(4-methylpiperazin-1-yl)phenyl]amino}pyridine-2-carboxamide] was tested. Which Ki did it give?
**A.** 100 to 1000 nM

**Q.** For CN1CCN(c2ccc(Nc3cc(CC4CCCCC4)cnc3C(N)=O)cc2)CC1 [Example 5, 5-(cyclohexylmethyl)-3-{[4-(4-methylpiperazin-1-yl)phenyl]amino}pyridine-2-carboxamide], which Ki is on record?
**A.** 100 to 1000 nM

**Q.** Which Ki does the source give for CN1CCN(c2ccc(Nc3cc(-c4ccccc4)cnc3C(N)=O)cc2)CC1 [Example 6, 3-{[4-(4-methylpiperazin-1-yl)phenyl]amino}-5-phenylpyridine-2-carboxamide] here?
**A.** 100 to 1000 nM

**Q.** With CN1CCN(c2ccc(Nc3cc(Cc4ccccc4)cnc3C(N)=O)cc2Cl)CC1 [Example 7, 5-benzyl-3-{[3-chloro-4-(4-methylpiperazin-1-yl)phenyl]amino}pyridine-2-carboxamide] as the compound, how does the Ki read?
**A.** 100 to 1000 nM

**Q.** Which Ki does the source give for Cc1cc(Nc2cc(Cc3ccccc3)cnc2C(N)=O)ccc1N1CCN(C)CC1 [Example 8, 5-benzyl-3-{[3-methyl-4-(4-methylpiperazin-1-yl)phenyl]amino}pyridine-2-carboxamide] here?
**A.** > 1000 nM

**Q.** Which Ki does the source give for Cc1cc(N2CCN(C)CC2)ccc1Nc1cc(Cc2ccccc2)cnc1C(N)=O [Example 9, 5-benzyl-3-{[2-methyl-4-(4-methylpiperazin-1-yl)phenyl]amino}pyridine-2-carboxamide] here?
**A.** 100 to 1000 nM

**Q.** For C=C(c1ccccc1)c1cnc(C(N)=O)c(Nc2ccc(N3CCN(C)CC3)cc2)c1 [Example 10, 3-{[4-(4-methylpiperazin-1-yl)phenyl]amino}-5-(1-phenylvinyl)pyridine-2-carboxamide], which Ki is on record?
**A.** 100 to 1000 nM

**Q.** CC(c1ccccc1)c1cnc(C(N)=O)c(Nc2ccc(N3CCN(C)CC3)cc2)c1 (stereo not shown) [Example 11, 3-{[4-(4-methylpiperazin-1-yl)phenyl]amino}-5-(1-phenylethyl)pyridine-2-carboxamide] was tested. Which Ki did it give?
**A.** 100 to 1000 nM

**Q.** How did the Ki turn out when CN1CCN(c2ccc(Nc3cc(Cc4ccc(F)cc4)cnc3C(N)=O)cc2)CC1 [Example 12, 5-(4-fluorobenzyl)-3-{[4-(4-methylpiperazin-1-yl)phenyl]amino}pyridine-2-carboxamide] was run?
**A.** 100 to 1000 nM

**Q.** For CN1CCN(c2ccc(Nc3cc(Cc4ccccc4F)cnc3C(N)=O)cc2)CC1 [Example 13, 5-(2-fluorobenzyl)-3-{[4-(4-methylpiperazin-1-yl)phenyl]amino}pyridine-2-carboxamide], which Ki is on record?
**A.** < 100 nM

**Q.** How did the Ki turn out when CN1CCN(c2ccc(Nc3cc(Cc4cccc(F)c4)cnc3C(N)=O)cc2)CC1 [Example 14, 5-(3-fluorobenzyl)-3-{[4-(4-methylpiperazin-1-yl)phenyl]amino}pyridine-2-carboxamide] was run?
**A.** < 100 nM

**Q.** CN1CCN(c2ccc(Nc3cc(Cc4c(F)cccc4F)cnc3C(N)=O)cc2)CC1 [Example 15, 5-(2,6-difluorobenzyl)-3-{[4-(4-methylpiperazin-1-yl)phenyl]amino}pyridine-2-carboxamide] was tested. Which Ki did it give?
**A.** < 100 nM

**Q.** How did the Ki turn out when COc1ccc(Cc2cnc(C(N)=O)c(Nc3ccc(N4CCN(C)CC4)cc3)c2)cc1 [Example 16, 5-(4-methoxybenzyl)-3-{[4-(4-methylpiperazin-1-yl)phenyl]amino}pyridine-2-carboxamide] was run?
**A.** 100 to 1000 nM

**Q.** Which Ki does the source give for CN1CCN(c2ccc(Nc3cc(Cc4ccc5ccccc5c4)cnc3C(N)=O)cc2)CC1 [Example 17, 3-{[4-(4-methylpiperazin-1-yl)phenyl]amino}-5-(2-naphthylmethyl)pyridine-2-carboxamide] here?
**A.** > 1000 nM

**Q.** With CN1CCN(c2ccc(Nc3cc(Cc4cc(F)cc(F)c4)cnc3C(N)=O)cc2)CC1 [Example 18, 5-(3,5-difluorobenzyl)-3-{[4-(4-methylpiperazin-1-yl)phenyl]amino}pyridine-2-carboxamide] as the compound, how does the Ki read?
**A.** < 100 nM

**Q.** For CN1CCN(c2ccc(Nc3cc(Cc4ccc(F)c(F)c4)cnc3C(N)=O)cc2)CC1 [Example 19, 5-(3,4-difluorobenzyl)-3-{[4-(4-methylpiperazin-1-yl)phenyl]amino}pyridine-2-carboxamide], which Ki is on record?
**A.** 100 to 1000 nM

**Q.** How did the Ki turn out when CN1CCN(c2ccc(Nc3cc(Cc4ccc(F)cc4F)cnc3C(N)=O)cc2)CC1 [Example 20, 5-(2,4-difluorobenzyl)-3-{[4-(4-methylpiperazin-1-yl)phenyl]amino}pyridine-2-carboxamide] was run?
**A.** 100 to 1000 nM

**Q.** Which Ki does the source give for CN1CCN(c2ccc(Nc3cc(Cc4cc(F)ccc4F)cnc3C(N)=O)cc2)CC1 [Example 21, 5-(2,5-difluorobenzyl)-3-{[4-(4-methylpiperazin-1-yl)phenyl]amino}pyridine-2-carboxamide] here?
**A.** < 100 nM

**Q.** How did the Ki turn out when COc1cccc(Cc2cnc(C(N)=O)c(Nc3ccc(N4CCN(C)CC4)cc3)c2)c1 [Example 22, 5-(3-methoxybenzyl)-3-{[4-(4-methylpiperazin-1-yl)phenyl]amino}pyridine-2-carboxamide] was run?
**A.** 100 to 1000 nM

**Q.** CN1CCN(c2ccc(Nc3cc(Cc4ccccc4Cl)cnc3C(N)=O)cc2)CC1 [Example 23, 5-(2-chlorobenzyl)-3-{[4-(4-methylpiperazin-1-yl)phenyl]amino}pyridine-2-carboxamide] was tested. Which Ki did it give?
**A.** 100 to 1000 nM

**Q.** CN1CCN(c2ccc(Nc3cc(Cc4cccc(Cl)c4)cnc3C(N)=O)cc2)CC1 [Example 24, 5-(3-chlorobenzyl)-3-{[4-(4-methylpiperazin-1-yl)phenyl]amino}pyridine-2-carboxamide] was tested. Which Ki did it give?
**A.** 100 to 1000 nM

**Q.** With CN1CCN(c2ccc(Nc3cc(Cc4ccc(Cl)cc4)cnc3C(N)=O)cc2)CC1 [Example 25, 5-(4-chlorobenzyl)-3-{[4-(4-methylpiperazin-1-yl)phenyl]amino}pyridine-2-carboxamide] as the compound, how does the Ki read?
**A.** > 1000 nM

**Q.** With Cc1cccc(Cc2cnc(C(N)=O)c(Nc3ccc(N4CCN(C)CC4)cc3)c2)c1 [Example 26, 5-(3-methylbenzyl)-3-{[4-(4-methylpiperazin-1-yl)phenyl]amino}pyridine-2-carboxamide] as the compound, how does the Ki read?
**A.** 100 to 1000 nM

**Q.** How did the Ki turn out when Cc1ccccc1Cc1cnc(C(N)=O)c(Nc2ccc(N3CCN(C)CC3)cc2)c1 [Example 27, 5-(2-methylbenzyl)-3-{[4-(4-methylpiperazin-1-yl)phenyl]amino}pyridine-2-carboxamide] was run?
**A.** > 1000 nM

**Q.** Which Ki does the source give for COc1ccccc1Cc1cnc(C(N)=O)c(Nc2ccc(N3CCN(C)CC3)cc2)c1 [Example 28, 5-(2-methoxybenzyl)-3-{[4-(4-methylpiperazin-1-yl)phenyl]amino}pyridine-2-carboxamide] here?
**A.** 100 to 1000 nM

**Q.** How did the Ki turn out when Cc1ccc(Cc2cnc(C(N)=O)c(Nc3ccc(N4CCN(C)CC4)cc3)c2)cc1 [Example 29, 5-(4-methylbenzyl)-3-{[4-(4-methylpiperazin-1-yl)phenyl]amino}pyridine-2-carboxamide] was run?
**A.** 100 to 1000 nM

**Q.** How did the Ki turn out when CN1CCN(c2ccc(Nc3cc(Cc4c(F)cccc4Cl)cnc3C(N)=O)cc2)CC1 [Example 30, 5-(2-chloro-6-fluorobenzyl)-3-{[4-(4-methylpiperazin-1-yl)phenyl]amino}pyridine-2-carboxamide] was run?
**A.** < 100 nM

**Q.** CN1CCN(c2ccc(Nc3cc(Cc4c(Cl)cccc4Cl)cnc3C(N)=O)cc2)CC1 [Example 31, 5-(2,6-dichlorobenzyl)-3-{[4-(4-methylpiperazin-1-yl)phenyl]amino}pyridine-2-carboxamide] was tested. Which Ki did it give?
**A.** < 100 nM

**Q.** CN1CCN(c2ccc(Nc3cc(Cc4ccccc4-c4ccccc4)cnc3C(N)=O)cc2)CC1 [Example 32, 5-(biphenyl-2-ylmethyl)-3-{[4-(4-methylpiperazin-1-yl)phenyl]amino}pyridine-2-carboxamide] was tested. Which Ki did it give?
**A.** 100 to 1000 nM

**Q.** For CN1CCN(c2ccc(Nc3cc(Cc4cccc(C(F)(F)F)c4)cnc3C(N)=O)cc2)CC1 [Example 33, 3-{[4-(4-methylpiperazin-1-yl)phenyl]amino}-5-[3-(trifluoromethyl)benzyl]pyridine-2-carboxamide], which Ki is on record?
**A.** 100 to 1000 nM

**Q.** Which Ki does the source give for CC(c1cccc(F)c1)c1cnc(C(N)=O)c(Nc2ccc(N3CCN(C)CC3)cc2)c1 (stereo not shown) [Example 34, 5-[1-(3-fluorophenyl)ethyl]-3-{[4-(4-methylpiperazin-1-yl)phenyl]amino}pyridine-2-carboxamide] here?
**A.** 100 to 1000 nM
